One data set deals with GluN1/2A NMDARs (Rattus norvegicus, UniProt P35439+Q00959). It is filed as cell-based. To be noted: after removal of 10 μM blocker.
The subject of a further data set is 5XFAD mice hippocampus. Description: Western blot of hippocampal proteins after treatment. The format is in vivo, mouse. The settings on record: 5 mg / kg.
The subject of a further data set is NMDAR. The settings on record: cited from earlier work; for V0: previously reported values, ref [28],[63],[68],[80]–[81]; for IC50: therapeutically beneficial NMDAR antagonists, ref [28],[61]–[68].
The subject of another data set is Caco-2 cells. As to the kind of experiment: Caco-2 cell permeability. It is filed as in vitro ADME. The settings on record: 10 μM in HBSS, 1 hour, 37 °C.

GluN1/2A NMDARs, sequence (Q00959 23-1464, other chains not shown): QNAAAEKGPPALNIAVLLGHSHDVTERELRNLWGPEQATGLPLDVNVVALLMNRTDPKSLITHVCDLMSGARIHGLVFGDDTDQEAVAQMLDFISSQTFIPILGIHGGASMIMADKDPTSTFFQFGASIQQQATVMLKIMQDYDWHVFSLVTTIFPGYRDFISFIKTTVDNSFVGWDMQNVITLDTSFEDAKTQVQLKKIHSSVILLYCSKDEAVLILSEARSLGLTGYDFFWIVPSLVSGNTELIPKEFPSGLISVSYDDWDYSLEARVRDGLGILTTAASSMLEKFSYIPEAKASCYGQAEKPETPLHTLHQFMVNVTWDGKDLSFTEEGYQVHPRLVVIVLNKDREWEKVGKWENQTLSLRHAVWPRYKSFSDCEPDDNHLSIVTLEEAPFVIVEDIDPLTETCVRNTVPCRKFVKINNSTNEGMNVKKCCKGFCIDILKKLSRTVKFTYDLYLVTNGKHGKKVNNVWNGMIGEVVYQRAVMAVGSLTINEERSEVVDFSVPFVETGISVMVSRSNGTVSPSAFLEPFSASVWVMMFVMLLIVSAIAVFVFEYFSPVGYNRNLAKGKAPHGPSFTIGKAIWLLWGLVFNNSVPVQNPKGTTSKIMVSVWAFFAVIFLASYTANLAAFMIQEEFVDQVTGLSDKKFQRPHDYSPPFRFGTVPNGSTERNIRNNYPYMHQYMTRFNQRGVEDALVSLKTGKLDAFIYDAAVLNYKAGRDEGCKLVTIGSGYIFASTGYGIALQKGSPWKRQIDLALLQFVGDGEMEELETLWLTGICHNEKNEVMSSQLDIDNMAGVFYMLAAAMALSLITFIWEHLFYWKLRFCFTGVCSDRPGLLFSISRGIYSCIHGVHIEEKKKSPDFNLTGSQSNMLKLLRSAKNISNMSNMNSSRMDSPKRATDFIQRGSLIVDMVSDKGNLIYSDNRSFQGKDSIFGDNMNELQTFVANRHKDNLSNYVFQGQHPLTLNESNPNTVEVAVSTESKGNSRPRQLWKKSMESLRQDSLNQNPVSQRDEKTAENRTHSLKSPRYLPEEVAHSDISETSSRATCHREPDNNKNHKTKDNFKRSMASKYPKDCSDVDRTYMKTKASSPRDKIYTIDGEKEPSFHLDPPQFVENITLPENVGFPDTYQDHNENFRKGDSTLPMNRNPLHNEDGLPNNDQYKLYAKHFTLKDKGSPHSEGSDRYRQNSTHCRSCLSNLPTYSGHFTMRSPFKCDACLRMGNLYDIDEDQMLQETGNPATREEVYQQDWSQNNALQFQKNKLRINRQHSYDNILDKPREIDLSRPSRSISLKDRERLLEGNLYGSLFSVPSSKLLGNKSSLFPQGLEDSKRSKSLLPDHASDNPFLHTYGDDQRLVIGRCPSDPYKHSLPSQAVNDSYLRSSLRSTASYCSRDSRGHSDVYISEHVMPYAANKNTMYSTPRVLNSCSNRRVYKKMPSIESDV

`CC12CC3CC(C)(C1)CC(N)(C3)C2` [Memantine, memantine]: the “Unblocking kinetics, τweighted” value at GluN1/2A NMDARs is 6.4 ± 1.4 s. Moreover, in the data set on 5XFAD mice hippocampus, the “Calbindin D-28K protein levels” value was “reverts calbindin D-28K protein levels to WT levels” and the PSD95 expression entry is listed as “rescues expression of postsynaptic density protein (PSD) 95”. Besides, the “p-CREB protein levels in the nucleus” value in the data set with 5XFAD mice hippocampus (vs untreated 5XFAD) is “significantly increased p-CREB protein levels in the nucleus”. For the same compound, in the data set on NMDAR, the V0 is listed as 26 – 30 mV and the IC50 was 1 to 2 µM.

In the case of `NC12CC3CC(CC(C3)C1)C2` [amantadine], in the data set on NMDAR, the IC50 is 40 to 75 µM.

With `CNC1(c2ccccc2Cl)CCCCC1=O` (stereo not drawn) [ketamine], in the data set with NMDAR, the V0 was 26 – 30 mV.

As to Lucifer yellow, in the data set on Caco-2 cells, the “Caco-2 Papp (monolayer integrity)” value is ≤ 10 nm/s.

Values taken from article PMC9106868 (European journal of medicinal chemistry, 2022).
